The values that follow come from ChEMBL document CHEMBL5154678, “Lysine Stapling Screening Provides Stable and Low Toxic Cationic Antimicrobial Peptides Combating Multidrug-Resistant Bacteria In Vitro and In Vivo” (J Med Chem, 2022).

≈ marks a conversion by molar mass, not a printed value. Where only a bound is given, the exact number is not on record here.

In one data set the test system is Listeria monocytogenes. The data set is described as follows: Antibacterial activity against Listeria monocytogenes assessed as inhibition of bacterial growth incubated for 16 hrs by broth microdilution method. It counts as functional.
Data set [1] relates to Staphylococcus aureus. Briefly: Antibacterial activity against Staphylococcus aureus BNCC 186335 assessed as inhibition of bacterial growth incubated for 16 hrs by broth microdilution method. It counts as functional.
Data set [2] has as its system Escherichia coli. Briefly: Antibacterial activity against cephalosporin-resistant Escherichia coli BNCC 133264 assessed as inhibition of bacterial growth incubated for 16 hrs by broth microdilution method. It is filed as functional.
Data set [3] deals with HEK-293T. The data set is described as follows: Cytotoxicity against human HEK293T cells assessed as cell survival rate at 128 ug/ml incubated for 24 hrs by MTT assay relative to control. It counts as toxicity, cell-based. Particulars: dose 128 µg/ml.
Data set [4] concerns Staphylococcus aureus. Briefly: Antibacterial activity against methicillin-resistant Staphylococcus aureus assessed as inhibition of bacterial growth incubated for 16 hrs by broth microdilution method. It is filed as functional.
Data set [5] concerns Staphylococcus aureus. Briefly: Antibacterial activity against methicillin-resistant Staphylococcus aureus BNCC 186335 assessed as inhibition of bacterial growth incubated for 4 hrs in presence of 25% plasma by broth microdilution method. It counts as functional.
In data set [6] the test system is HEK-293T. The data set is described as follows: Cytotoxicity against human HEK293T cells assessed as cell survival rate at 256 ug/ml incubated for 24 hrs by MTT assay. It is filed as toxicity, cell-based. Particulars: dose 256 µg/ml.
In data set [7] the test system is Escherichia coli. Briefly: Antibacterial activity against Escherichia coli BNCC 133264 assessed as inhibition of bacterial growth incubated for 16 hrs by broth microdilution method. It counts as functional.
In another data set the test system is Erythrocyte. Briefly: Hemolytic activity against human RBC assessed as concentration required to cause 10% hemolysis. It is filed as toxicity, cell-based.
The test system of a further data set is Pseudomonas aeruginosa. Briefly: Antibacterial activity against Pseudomonas aeruginosa BNCC 125486 assessed as inhibition of bacterial growth incubated for 16 hrs by broth microdilution method. It counts as functional.

On to `CC(C)[C@H](N)C(=O)N[C@H]1CCCCNCc2ccccc2CNCCCC[C@@H](C(=O)N[C@@H](Cc2ccccc2)C(=O)N[C@@H](Cc2ccccc2)C(=O)N[C@@H](CCCNC(=N)N)C(=O)N[C@@H](CCCCN)C(=O)N[C@@H](Cc2ccccc2)C(=O)N[C@@H](CCCCN)C(=O)N[C@@H](CCCCN)C(=O)N[C@@H](Cc2ccccc2)C(=O)N[C@H](C(N)=O)C(C)C)NC(=O)[C@H](CCCCN)NC(=O)[C@H](Cc2ccccc2)NC(=O)[C@H](CCCNC(=N)N)NC1=O`, for which the MIC turned out to be 16 mg/L (≈ 7.5 µM) in the data set with Listeria monocytogenes; 4 mg/L (≈ 1.87 µM) in the data set on Staphylococcus aureus [1]; 16 mg/L (≈ 7.5 µM) in the data set on Escherichia coli [2]; 8 mg/L (≈ 3.75 µM) with Staphylococcus aureus [4]; 128 mg/L in the data set with Staphylococcus aureus [5]; 8 mg/L (≈ 3.75 µM) with Escherichia coli [7]. For the same molecule, the MIC with Pseudomonas aeruginosa came to 16 mg/L (≈ 7.5 µM). The Activity entry in the data set on HEK-293T [3] is “Non-Toxic”; with HEK-293T [6], “Toxic”. For the same molecule, the MHC with Erythrocyte is greater than 128 µg/mL.

As for `CC(C)[C@H](N)C(=O)N[C@@H](CCCCN)C(=O)N[C@@H](CCCNC(=N)N)C(=O)N[C@@H](Cc1ccccc1)C(=O)N[C@@H](CCCCN)C(=O)N[C@H]1CCCCNCC#CCNCCCC[C@@H](C(=O)N[C@@H](Cc2ccccc2)C(=O)N[C@@H](CCCCN)C(=O)N[C@@H](CCCCN)C(=O)N[C@@H](Cc2ccccc2)C(=O)N[C@H](C(N)=O)C(C)C)NC(=O)[C@H](CCCNC(=N)N)NC(=O)[C@H](Cc2ccccc2)NC(=O)[C@H](Cc2ccccc2)NC1=O`, the MIC was 2 mg/L (≈ 0.96 µM) in the data set on Listeria monocytogenes; 2 mg/L (≈ 0.96 µM) in the data set with Staphylococcus aureus [1]; 16 mg/L (≈ 7.68 µM) in the data set with Escherichia coli [2]; 4 mg/L (≈ 1.92 µM) in the data set on Staphylococcus aureus [4]; 8 mg/L in the data set with Staphylococcus aureus [5]; 2 mg/L (≈ 0.96 µM) in the data set with Escherichia coli [7]. The MIC with Pseudomonas aeruginosa turned out to be 16 mg/L (≈ 7.68 µM). Further, the Activity entry with HEK-293T [6] is listed as “Toxic”. The MHC in the data set with Erythrocyte is greater than 128 µg/mL.

Regarding `CC(C)[C@H](N)C(=O)N[C@H]1CCCCNCC#CCNCCCC[C@@H](C(=O)N[C@@H](Cc2ccccc2)C(=O)N[C@@H](Cc2ccccc2)C(=O)N[C@@H](CCCNC(=N)N)C(=O)N[C@@H](CCCCN)C(=O)N[C@@H](Cc2ccccc2)C(=O)N[C@@H](CCCCN)C(=O)N[C@@H](CCCCN)C(=O)N[C@@H](Cc2ccccc2)C(=O)N[C@H](C(N)=O)C(C)C)NC(=O)[C@H](CCCCN)NC(=O)[C@H](Cc2ccccc2)NC(=O)[C@H](CCCNC(=N)N)NC1=O`, the MIC came out at 8 mg/L (≈ 3.84 µM) in the data set on Listeria monocytogenes; 4 mg/L (≈ 1.92 µM) with Staphylococcus aureus [1]; 16 mg/L (≈ 7.68 µM) with Escherichia coli [2]; 8 mg/L (≈ 3.84 µM) in the data set on Staphylococcus aureus [4]; 128 mg/L with Staphylococcus aureus [5]; 4 mg/L (≈ 1.92 µM) in the data set on Escherichia coli [7]. Also, the MIC in the data set with Pseudomonas aeruginosa amounted to 16 mg/L (≈ 7.68 µM). Moreover, the Activity result in the data set on HEK-293T [6] is reported as “Toxic”. Further, in the data set with Erythrocyte, the MHC was greater than 128 µg/mL.
